Results on 18 molecules are retold here after patent US20230203043A1, “NOVEL IMIDAZOPYRAZINE DERIVATIVES” (Hoffmann-La Roche Inc., priority 2020, published 2023).

Where a name gives a salt, the structure may show the parent alone.

By IC90 is commonly meant the concentration at which the effect reaches the 90% level.

The first assay concerns Acinetobacter baumannii ATCC17961. Nature of the assay: Antimicrobial susceptibility testing: 90% growth inhibitory concentration (IC90) determination in Iso-Sensitest broth, OD600 growth. As to conditions: Acinetobacter baumannii, ATCC17961, 16 h, read-out: A. baumannii ATCC 17961 IC90 (uM), strain ATCC 17961, OD600 growth over 16 h. The format is cell-based. In a few lines:
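OD600 read every 20 min for 16 h at 35±2° C; inhibition taken in log phase to derive IC90. Twofold, 10-point dilutions (e.g. 50–0.097 μM final), inoculum ~5×10^(5) CFU/ml.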
As to `CNC(=O)c1ccc(Nc2nccn3c(-c4cn(CC5CCN(Cc6ccccc6)C5)nc4C(F)(F)F)cnc23)cc1Cl` (stereo not drawn) [Example 593, 4-((3-(1-((1-benzylpyrrolidin-3-yl)methyl)-3-(trifluoromethyl)-1H-pyrazol-4-yl)imidazo [1,2-a]pyrazin-8-yl)amino)-2-chloro-N-methylbenzamide formate], the IC90 was 0.234 µM.

Regarding `CCc1cc(Nc2nccn3c(-c4cn(CC5CC(F)(F)C5)nc4C(F)(F)F)cnc23)ccc1C(=O)NCCOCCN` [Example 304, N-[2-(2-aminoethoxy)ethyl]-4-[[3-[1-[(3,3-difluorocyclobutyl)methyl]-3-(trifluoromethyl)pyrazol-4-yl]imidazo[1,2-a]pyrazin-8-yl]amino]-2-ethylbenzamide formate], the concentration for an effect of 90% (IC90) was determined as 0.253 µM.

With `C[C@@H](NC(=O)c1ccc(Nc2nccn3c(-c4c[nH]nc4C(F)(F)F)cnc23)cc1Cl)C(=O)N1CCC(N)CC1` [Example 90, N-[(2R)-1-(4-aminopiperidin-1-yl)-1-oxopropan-2-yl]-2-chloro-4-[[3-[3-(trifluoromethyl)-1H-pyrazol-4-yl]imidazo[1,2-a]pyrazin-8-yl]amino]benzamide formate], the IC90 is 0.643 µM.

`CCc1cc(Nc2nccn3c(-c4cn(CC#N)nc4C(F)(F)F)cnc23)ccc1C(=O)NCC(=O)N1CCNC(C)C1` (stereo not drawn) [Example 507, 4-[[3-[1-(cyanomethyl)-3-(trifluoromethyl)pyrazol-4-yl]imidazo[1,2-a]pyrazin-8-yl]amino]-2-ethyl-N-[2-(3-methylpiperazin-1-yl)-2-oxo-ethyl]benzamide formate]: the IC90 amounted to 0.245 µM.

Consider `Cc1cc(Nc2nccn3c(-c4cn(C)nc4C(F)(F)F)cnc23)ccc1C(=O)N1CCN(C(=O)N[C@H]2CNC[C@@H]2O)CC1` [Example 470, formic acid; N-[(3S,4S)-4-hydroxypyrrolidin-3-yl]-4-[2-methyl-4-[[3-[1-methyl-3-(trifluoromethyl)pyrazol-4-yl]imidazo[1,2-a]pyrazin-8-yl]amino]benzoyl]piperazine-1-carboxamide], for which the IC90 was determined as 0.793 µM.

Staying with this assay, now noted: Acinetobacter baumannii, ATCC17961, 16 h, strain ATCC 17961, OD600 growth over 16 h, read-out: A. baumannii ATCC 17961 IC90.
As for `N[C@@H]1CC[C@@H](NC(=O)c2ccc(Nc3nccn4c(-c5c[nH]nc5C(F)(F)F)cnc34)cc2Cl)C1` (racemic) [Example 407, 2-chloro-N-[rac-(1R,3R)-3-aminocyclopentyl]-4-[[3-[3-(trifluoromethyl)-1H-pyrazol-4-yl]imidazo[1,2-a]pyrazin-8-yl]amino]benzamide], the IC90 amounted to 2.96 µM.

For the molecule `CCc1cc(Nc2nccn3c(-c4cn(CC(F)F)nc4C(F)(F)F)cnc23)ccc1C(=O)NCCOC[C@H](C)N` [Example 153, N-[2-[(2S)-2-aminopropoxy]ethyl]-4-[[3-[1-(2,2-difluoroethyl)-3-(trifluoromethyl)pyrazol-4-yl]imidazo[1,2-a]pyrazin-8-yl]amino]-2-ethylbenzamide], the IC90 came out at 0.311 µM.

Consider `O=C(NC1CNC1)c1ccc(Nc2nccn3c(-c4c[nH]nc4C(F)(F)F)cnc23)cc1Cl` [Example 406, N-(azetidin-3-yl)-2-chloro-4-[[3-[3-(trifluoromethyl)-1H-pyrazol-4-yl]imidazo[1,2-a]pyrazin-8-yl]amino]benzamide], for which the IC90 was 1.4 µM.

In the case of `CCc1cc(Nc2nccn3c(-c4cn(CC(F)F)nc4C(F)(F)F)cnc23)ccc1C(=O)N[C@H](C)CNC(=O)[C@@H]1C[C@@H](O)CN1` [Example 684, (2S,4R)-N-((R)-2-(4-((3-(1-(2,2-difluoroethyl)-3-(trifluoromethyl)-1H-pyrazol-4-yl)imidazo[1,2-a]pyrazin-8-yl)amino)-2-ethylbenzamido)propyl)-4-hydroxypyrrolidine-2-carboxamide], the IC90 was determined as 0.34 µM.

Turning to `C#CCNC(=O)c1c(C)cc(Nc2nccn3c(-c4cn(CCF)nc4C(F)(F)F)cnc23)cc1F` [Example 42, 2-fluoro-4-[[3-[1-(2-fluoroethyl)-3-(trifluoromethyl)pyrazol-4-yl]imidazo[1,2-a]pyrazin-8-yl]amino]-6-methyl-N-prop-2-ynylbenzamide], the IC90 came out at 0.354 µM.

For the molecule `C[C@@H](N)C(=O)N1CCN(C(=O)c2ccc(Nc3nccn4c(-c5cn(CC#N)nc5C(F)(F)F)cnc34)cc2Cl)CC1` [Example 188, 2-[4-[8-[4-[4-[(2R)-2-aminopropanoyl]piperazine-1-carbonyl]-3-chloroanilino]imidazo[1,2-a]pyrazin-3-yl]-3-(trifluoromethyl)pyrazol-1-yl]acetonitrile], the IC90 stood at 0.197 µM.

Consider `Cc1cc(Nc2nccn3c(-c4cn(CC#N)nc4C(F)(F)F)cnc23)ccc1S(C)(=O)=NCCCN` (stereo not drawn) [Example 597, 2-[4-[8-[4-[N-(3-aminopropyl)-S-methyl-sulfonimidoyl]-3-methyl-anilino]imidazo[1,2-a]pyrazin-3-yl]-3-(trifluoromethyl)pyrazol-1-yl]acetonitrile], for which the IC90 is 0.179 µM.

On to `C#CCn1cc(-c2cnc3c(Nc4ccc(C(=O)N5CCN(C(=O)C6CCNCC6)CC5)c(CC)c4)nccn23)c(C(F)F)n1` [Example 730, (4-(4-((3-(3-(difluoromethyl)-1-(prop-2-yn-1-yl)-1H-pyrazol-4-yl)imidazo[1,2-a]pyrazin-8-yl)amino)-2-ethylbenzoyl)piperazin-1-yl)(piperidin-4-yl) methanone], for which the IC90 was found to be 0.475 µM.

Regarding `CNC(=O)c1ccc(Nc2nccn3c(-c4cn(CC(F)F)nc4C(F)(F)F)cnc23)cc1Cl` [Example 124, 2-chloro-4-[[3-[1-(2,2-difluoroethyl)-3-(trifluoromethyl)pyrazol-4-yl]imidazo[1,2-a]pyrazin-8-yl]amino]-N-methylbenzamide], the IC90 is 0.121 µM.

Take `O=C(NC1CCN(C(=O)[C@@H]2C[C@@H](O)CN2)CC1)c1ccc(Nc2nccn3c(-c4c[nH]nc4C(F)(F)F)cnc23)cc1Cl` [Example 381, 2-chloro-N-[1-[(2S,4R)-4-hydroxypyrrolidine-2-carbonyl]piperidin-4-yl]-4-[[3-[3-(trifluoromethyl)-1H-pyrazol-4-yl]imidazo[1,2-a]pyrazin-8-yl]amino]benzamide]: the IC90 came out at 0.63 µM.

Take `N#CCn1cc(-c2cnc3c(Nc4ccc(C(=O)NCCNCC(=O)N[C@H]5CCNC5)c(Cl)c4)nccn23)c(C(F)(F)F)n1` [Example 817, (S)-2-chloro-4-((3-(1-(cyanomethyl)-3-(trifluoromethyl)-1H-pyrazol-4-yl)imidazo[1,2-a]pyrazin-8-yl)amino)-N-(2-((2-oxo-2-(pyrrolidin-3-ylamino)ethyl)amino)ethyl) benzamide formate]: the IC90 was 0.18 µM.

On to `Cc1cc(Nc2nccn3c(-c4cn(CC(F)F)nc4C(F)(F)F)cnc23)cc(F)c1C(=O)N1CCN(C(=O)[C@H]2C[C@@H](N)C2)CC1` [Example 701, (4-((1s,3s)-3-aminocyclobutane-1-carbonyl)piperazin-1-yl)(4-((3-(1-(2,2-difluoroethyl)-3-(trifluoromethyl)-1H-pyrazol-4-yl)imidazo[1,2-a]pyrazin-8-yl)amino)-2-fluoro-6-methylphenyl)methanone], for which the 90% effect concentration (IC90) is 0.382 µM.

In the case of `Cc1cc(Nc2nccn3c(-c4c[nH]nc4C(F)(F)F)cnc23)ccc1C(=O)N1CCN(C(=O)C2(O)CCCNC2)CC1` (stereo not drawn) [Example 436, [4-(3-hydroxypiperidine-3-carbonyl)piperazin-1-yl]-[2-methyl-4-[[3-[3-(trifluoromethyl)-1H-pyrazol-4-yl]imidazo[1,2-a]pyrazin-8-yl]amino]phenyl]methanone hydrochloride], the IC90 is 0.536 µM.
